Experiment [1] is filed under the species Rattus norvegicus. Briefly: Displacement of radiolabelled L-T3 from thyroid hormone receptor in intact rat hepatic nuclei relative to T3.
For experiment [2], the system named is Rattus norvegicus. Briefly: In vivo antigoiter activity in rat. Type of experiment: functional.

Each structure is given as a SMILES string.

In experiment [1], `NC(Cc1cc(I)c(Sc2ccc(O)cc2)c(I)c1)C(=O)O` (stereo unspecified) gave an RBA of 1.3% and a log(%) of 0.114.

As to `Cc1cccc(Oc2c(I)cc(CC(N)C(=O)O)cc2I)c1` (stereo unspecified), in experiment [2], the Activity was 2.71% and the “log(%)” value was determined as 0.433. Besides, in experiment [1], the RBA turned out to be 0.2% and the log(%) is -0.699.

In the case of `NC(Cc1cc(I)c(Oc2cccc(Cl)c2)c(I)c1)C(=O)O` (stereo unspecified), in experiment [2], the Activity is reported as 7.78% and the “log(%)” value is reported as 0.891.

Turning to `Cc1cc(C)cc(Oc2c(I)cc(CC(N)C(=O)O)cc2I)c1` (stereo unspecified), in experiment [2], the Activity is reported as 0.054% and the “log(%)” value was -0.839.

Turning to `NC(Cc1cc(I)c(Oc2cccc(C(F)(F)F)c2)c(I)c1)C(=O)O` (stereo unspecified), in experiment [2], the Activity is given as 13.56% and the “log(%)” value is listed as 1.132. For the same compound, in experiment [1], the RBA amounted to 0.2% and the log(%) was -0.699.

As to `NC(Cc1cc(Br)c(Oc2cc(Br)c(O)c(Br)c2)c(Br)c1)C(=O)O` (stereo unspecified), in experiment [2], the Activity is given as 0.065% and the “log(%)” value was -1.187.

As for `NC(Cc1cc(I)c(Oc2ccc(O)c(F)c2)c(I)c1)C(=O)O` (stereo unspecified), in experiment [2], the Activity amounted to 0.65% and the “log(%)” value is recorded as -0.785.

With `NC(Cc1cc(I)c(Cc2ccc(O)c(I)c2)c(I)c1)C(=O)O` (stereo unspecified), in experiment [2], the Activity worked out at 54.25% and the “log(%)” value came out at 1.734. In experiment [1], this compound gave an RBA of 250% and a log(%) of 2.4.

In the case of `Cc1cc(Oc2c(C)cc(CC(N)C(=O)O)cc2C)cc(C)c1O` (stereo unspecified), in experiment [2], the Activity was 0.36% and the “log(%)” value was -0.444. For the same compound, in experiment [1], the RBA is 0.1% and the log(%) was -1.

On to `Cc1cc(Oc2c(I)cc(CC(N)C(=O)O)cc2I)cc(C)c1N` (stereo unspecified), for which, in experiment [2], the Activity came to 0.31% and the “log(%)” value is -0.886.

With `Nc1ccc(Oc2c(I)cc(CC(N)C(=O)O)cc2I)cc1` (stereo unspecified), in experiment [2], the Activity came to 0.27% and the “log(%)” value is recorded as -0.569. Further, in experiment [1], the RBA stood at 0.76% and the log(%) was -0.119.

For `COc1ccc(Oc2c(I)cc(CC(N)C(=O)O)cc2I)cc1C(C)(C)C` (stereo unspecified), in experiment [2], the Activity stood at 2.35% and the “log(%)” value stood at 0.371.

Regarding `Cc1cc(Oc2c(C)cc(CC(N)C(=O)O)cc2C)ccc1O` (stereo unspecified), in experiment [2], the Activity is 0.54% and the “log(%)” value is -0.268. Also, in experiment [1], the RBA amounted to 0.1% and the log(%) was -1.

As for `Cc1cc(Oc2c(I)cc(CC(N)C(=O)O)cc2I)c(C)cc1O` (stereo unspecified), in experiment [2], the Activity came to 0.18% and the “log(%)” value is listed as -0.745. Besides, in experiment [1], the RBA turned out to be 0.1% and the log(%) was -1.

Take `NC(Cc1cc(I)c(Oc2cc(F)c(O)c(I)c2)c(I)c1)C(=O)O` (stereo unspecified): in experiment [2], the Activity stood at 6.03% and the “log(%)” value was determined as 0.78.

Take `NC(Cc1cc(Br)c(Oc2ccc(O)c(Br)c2)c(Br)c1)C(=O)O` (stereo unspecified): in experiment [2], the Activity is 4.63% and the “log(%)” value came to 0.666.

As to `Cc1cc(CC(N)C(=O)O)cc(C)c1Oc1ccc(O)c(C(C)C)c1` (stereo unspecified), in experiment [2], the Activity amounted to 3.6% and the “log(%)” value amounted to 0.556. In experiment [1], the RBA was 0.7% and the log(%) was -0.155.

On to `NC(Cc1cc(I)c(Oc2cccc(I)c2)c(I)c1)C(=O)O` (stereo unspecified), for which, in experiment [2], the Activity is 27.12% and the “log(%)” value came to 1.433. Moreover, in experiment [1], the RBA is 0.4% and the log(%) was -0.398.

As to `CCC(C)c1cc(Oc2c(C)cc(CC(N)C(=O)O)cc2C)ccc1O` (stereo unspecified), in experiment [2], the Activity is listed as 2.91% and the “log(%)” value stood at 0.464.

In experiment [1], `NC(Cc1cc(I)c(Oc2ccc(O)c3ccccc23)c(I)c1)C(=O)O` (stereo unspecified) had an RBA of 8% and a log(%) of 0.903.

For the compound `NC(Cc1cc(I)c(Oc2ccccc2)c(I)c1)C(=O)O` (stereo unspecified), in experiment [2], the Activity was 1.24% and the “log(%)” value is listed as 0.093.

With `CC(C)c1cc(Oc2c(I)cc(CC(N)C(=O)O)cc2I)cc(C(C)C)c1O` (stereo unspecified), in experiment [1], the RBA was found to be 1.4% and the log(%) came to 0.146.

On to `NC(Cc1cc(Cl)c(Oc2ccc(O)c(Cl)c2)c(Cl)c1)C(=O)O` (stereo unspecified), for which, in experiment [2], the Activity is listed as 0.091% and the “log(%)” value was -1.041.

For `COc1ccc(Oc2c(I)cc(CC(N)C(=O)O)cc2I)cc1C(C)C` (stereo unspecified), in experiment [2], the Activity amounted to 19% and the “log(%)” value worked out at 1.279.

As to `NC(Cc1cc(Br)c(Oc2ccc(O)c(I)c2)c(Br)c1)C(=O)O` (stereo unspecified), in experiment [2], the Activity was 16.87% and the “log(%)” value is on record as 1.227.

Consider `CC(C)c1cc(Oc2c(Br)cc(CC(N)C(=O)O)cc2Br)ccc1O` (stereo unspecified), for which, in experiment [2], the Activity is 30% and the “log(%)” value stood at 1.477. In experiment [1], this compound returned an RBA of 36% and a log(%) of 1.56.

Turning to `NC(Cc1cc(I)c(Oc2ccc(O)c3c2CCCC3)c(I)c1)C(=O)O` (stereo unspecified), in experiment [2], the Activity is 18.08% and the “log(%)” value was 1.257. Also, in experiment [1], the RBA was 8% and the log(%) was 0.903.

Regarding `NC(Cc1cc(I)c(Oc2ccc(O)c([N+](=O)[O-])c2)c(I)c1)C(=O)O` (stereo unspecified), in experiment [2], the Activity amounted to 0.18% and the “log(%)” value is on record as -0.745.

Turning to `NC(Cc1cc(Br)c(Oc2cc(I)c(O)c(I)c2)c(Br)c1)C(=O)O` (stereo unspecified), in experiment [2], the Activity is reported as 1.97% and the “log(%)” value is recorded as 0.294.

Regarding `COc1ccc(Oc2c(I)cc(CC(N)C(=O)O)cc2I)cc1I` (stereo unspecified), in experiment [2], the Activity came out at 11.25% and the “log(%)” value was found to be 1.051.

In experiment [1], `NC(Cc1cc(I)c(Oc2ccc(O)c(C3CCCCC3)c2)c(I)c1)C(=O)O` (stereo unspecified) yielded an RBA of 1.4% and a log(%) of 0.146.

As for `NC(Cc1ccc(Oc2ccc(O)c(I)c2)c(I)c1)C(=O)O` (stereo unspecified) [DIIODOTHYRONINE], in experiment [2], the Activity was determined as 0.056% and the “log(%)” value is reported as -1.252. In experiment [1], this compound displayed an RBA of 0.5% and a log(%) of -0.301.

Turning to `CCCc1cc(Oc2c(C)cc(CC(N)C(=O)O)cc2C)ccc1O` (stereo unspecified), in experiment [2], the Activity came out at 2.36% and the “log(%)” value was 0.373.

On to `CC(C)c1cc(Oc2c(I)cc(CC(N)C(=O)O)cc2I)cc(I)c1O` (stereo unspecified), for which, in experiment [2], the Activity came out at 55.36% and the “log(%)” value is on record as 1.743.

For `CCC(C)c1cc(Oc2c(I)cc(CC(N)C(=O)O)cc2I)ccc1O` (stereo unspecified), in experiment [2], the Activity is 79.9% and the “log(%)” value is listed as 1.902.

Regarding `Cc1cc(CC(N)C(=O)O)ccc1Oc1ccc(O)c(I)c1` (stereo unspecified), in experiment [2], the Activity was 0.12% and the “log(%)” value is on record as -0.921.

Compound `CC(C)c1cc(CC(N)C(=O)O)cc(C(C)C)c1Oc1ccc(O)c(I)c1` (stereo unspecified) came in with an RBA in experiment [1] of 0.2%.

`Cc1cc(CC(N)C(=O)O)cc(C)c1Oc1ccc(O)c(I)c1` (stereo unspecified): in experiment [2], the Activity stood at 0.9% and the “log(%)” value is reported as -0.046.

With `NC(Cc1cc(I)c(Oc2cccc(Br)c2)c(I)c1)C(=O)O` (stereo unspecified), in experiment [2], the Activity is 18% and the “log(%)” value is listed as 1.225.

On to `NC(Cc1cc(I)c(Oc2cc(Cl)c(O)c(Cl)c2)c(I)c1)C(=O)O` (stereo unspecified), for which, in experiment [2], the Activity was determined as 3.8% and the “log(%)” value was 0.58. In experiment [1], this compound came in with an RBA of 4.5% and a log(%) of 0.653.

For the compound `NC(Cc1cc(Cl)c(Oc2cc(Cl)c(O)c(I)c2)c(I)c1)C(=O)O` (stereo unspecified), in experiment [2], the Activity came to 2.27% and the “log(%)” value is listed as 0.356.

Take `NC(Cc1cc(Br)c(Oc2cc(Br)c(O)c(I)c2)c(I)c1)C(=O)O` (stereo unspecified): in experiment [2], the Activity is 2.83% and the “log(%)” value turned out to be 0.452.

In experiment [1], `NC(Cc1cc(I)c(Cc2cc(I)c(O)c(I)c2)c(I)c1)C(=O)O` (stereo unspecified) had an RBA of 2.6% and a log(%) of 0.415.

`Cc1cc(O)c(I)cc1Oc1c(I)cc(CC(N)C(=O)O)cc1I` (stereo unspecified): in experiment [2], the Activity is 0.36% and the “log(%)” value is given as -0.444. In experiment [1], this compound came in with an RBA of 0.3% and a log(%) of -0.523.

On to `CCCc1cc(Oc2c(I)cc(CC(N)C(=O)O)cc2I)ccc1O` (stereo unspecified), for which, in experiment [2], the Activity is 39.5% and the “log(%)” value is on record as 1.597.

For the compound `NC(Cc1cc(I)c(Oc2cc(Br)c(O)c(Br)c2)c(I)c1)C(=O)O` (stereo unspecified), in experiment [2], the Activity is recorded as 1.58% and the “log(%)” value is 0.199.

For `Cc1c(O)ccc(Oc2c(I)cc(CC(N)C(=O)O)cc2I)c1C` (stereo unspecified), in experiment [2], the Activity stood at 9.04% and the “log(%)” value worked out at 0.956. Also, in experiment [1], the RBA came to 1.1% and the log(%) came out at 0.041.

Regarding `NC(Cc1cc(I)c(Sc2ccc(O)c(I)c2)c(I)c1)C(=O)O` (stereo unspecified), in experiment [2], the Activity was found to be 13.82% and the “log(%)” value stood at 1.14. Besides, in experiment [1], the RBA is 100% and the log(%) was 2.

Regarding `NC(Cc1cc(I)c(Oc2cccc(F)c2)c(I)c1)C(=O)O` (stereo unspecified), in experiment [2], the Activity is listed as 1.39% and the “log(%)” value is 0.143.

As to `NC(Cc1cc(I)c(Oc2cc(F)c(O)c(F)c2)c(I)c1)C(=O)O` (stereo unspecified), in experiment [2], the Activity is on record as 0.43% and the “log(%)” value is reported as -0.366.

Take `NC(Cc1cc(I)c(Oc2ccc(O)c(Cl)c2)c(I)c1)C(=O)O` (stereo unspecified): in experiment [2], the Activity is reported as 4.88% and the “log(%)” value stood at 0.688. Besides, in experiment [1], the RBA is 6.2% and the log(%) worked out at 0.792.

`NC(Cc1cc(I)c(Oc2ccc(O)c(Br)c2)c(I)c1)C(=O)O` (stereo unspecified): in experiment [2], the Activity came to 23.78% and the “log(%)” value turned out to be 1.376.

For `Cc1cc(Oc2c(I)cc(CC(N)C(=O)O)cc2I)ccc1N` (stereo unspecified), in experiment [2], the Activity turned out to be 0.036% and the “log(%)” value is -1.444.

As for `Cc1cc(CC(N)C(=O)O)cc(I)c1Oc1ccc(O)cc1` (stereo unspecified), in experiment [2], the Activity was 0.093% and the “log(%)” value was -1.032.

For the compound `NC(Cc1cc(Br)c(Oc2ccc(O)c(I)c2)c(I)c1)C(=O)O` (stereo unspecified), in experiment [2], the Activity was found to be 71.98% and the “log(%)” value came to 1.857. In experiment [1], this compound had an RBA of 1.4% and a log(%) of 0.146.

For the compound `Cc1cc(CC(N)C(=O)O)cc(I)c1Oc1ccc(O)c(I)c1` (stereo unspecified), in experiment [2], the Activity was 6.24% and the “log(%)” value stood at 0.795.

Turning to `NC(Cc1ccc(Oc2cc(I)c(O)c(I)c2)c(I)c1)C(=O)O` (stereo unspecified) [REVERSETRIIODOTHYRONINE], in experiment [2], the Activity is listed as 0.125% and the “log(%)” value is listed as -0.903. In experiment [1], this compound gave an RBA of 0.1% and a log(%) of -1.

The values are drawn from ChEMBL document CHEMBL3272192, “Thyroxine analogues. 23. Quantitative structure-activity correlation studies of in vivo and in vitro thyromimetic activities” (1977).
